Measurements as given in patent US20120283096A1, “AGENT FOR IMPROVING PLANT GROWTH, SEEDS, AND METHOD FOR IMPROVING PLANT GROWTH” (Incorporated Administrative Agency National Agricu lture …, priority 2010, published 2012).
Entries after “also recorded” stand apart in the source; their conditions may differ. Like-named read-outs stand apart in the source and are kept apart here.

Experiments:
[1] = system: sulfide ion generation; assay: Inhibition of sulfide ion generation, paddy seeds covered with slightly-soluble substances (Example 2-3, FIG. 9); details: approximately 0.1 mmol/g (per dry seeds) in terms of molybdenum or tungsten
From the text: The water on slightly germinated seeds was lightly wiped off, and immediately after that, the seeds were put with (lightly covered with) various amounts of the slightly-soluble substances shown in Table 1. […] The number of days for which sulfide ion generation was inhibited and the proportion of seedling establishment were examined.

[2] = system: paddy seeds; assay: Possibility of growth of paddy seeds in tank farming without soil (Example 3); details: in vivo
Procedure: (§1) The decay-inhibiting effect of molybdenum-containing substances in tank farming without soil was examined.
(§2) The possibility of growth and the inhibition of decay were determined in the same manner as above.

[3] = system: decay of paddy seeds; assay: Decay-inhibiting effect in tank farming without soil (Example 3); details: seeds covered with substance, soaked two weeks in water at 30° C.
Procedure: as §1, §2

[4] = system: paddy rice; assay: Seedling establishment of coated paddy seeds planted in a paddy field (Example 4-5, FIG. 22); format: in vivo; details: dry seeds coated with clay plus 0.1 mmol/g molybdenum; kept submerged, about one month after seeding; versus WITHOUT MATERIAL and oxygen generating agent (Cal); trihydrate
Procedure: Dry paddy seeds (branded as Hinohikari) were prepared.
Separately, dry seeds (WITHOUT MATERIAL) coated solely with clay containing no molybdenum were also prepared. Furthermore, dry seeds (Cal) coated with an oxygen generating agent (Calper Powder 16, Hodogaya UPL Co., Ltd.) the same weight per dry seeds were also prepared. Calper Powder 16 is an oxygen generating agent composed mainly of calcium peroxide.
These dry seeds were planted in puddled soil in a paddy field in Chikugo City, Fukuoka Prefecture, by using a simultaneous puddling and planting point sowing machine. By preparing the seeds as described above and planting them by using a point sowing machine, the amount of seeding per unit area of the paddy field can be substantially uniformed. It should be noted that prior to soil puddling, 4 g/m^2 of ammonium sulfate as nitrogen and potassium sulfate containing potassium equivalent to 8 g/m^2 as potassium oxide had been applied to the paddy field. After seeding, the seeds were kept submerged without draining the water.

[5] = system: barley; assay: Seedling establishment of barley seeds with ammonium molybdophosphate (Example 5, FIG. 12); format: in vivo; details: 20° C. and 30° C., after two weeks
Procedure: As in Example 4-1, ammonium sulfate in an equivalent amount of 10 g/m^2 in terms of nitrogen and potassium chloride equivalent to 5 g/m^2 of potassium as potassium oxide were added as a solution to paddy humid soil, on the condition that the weight of dry soil is 100 kg/m^2. The soil was placed into each container (in the shape of a cylinder approximately 7 cm in diameter) in an amount equivalent to 100 g of dry soil, shaken for approximately one hour, and left at rest for two days at 4° C. It should be noted, however, that the soil-to-liquid ratio was 0.7. On this condition, the soil surface became substantially as high as the water surface. Barley seeds (branded as Nishinochikara) and soybean seeds (branded as Fukuyutaka) not subjected to treatment such as soaking in advance were soaked in water for one minute. Immediately after the extra water was removed, the seeds were put with a […] molybdenum amount of ammonium molybdophosphate (purchased from Wako Pure Chemical Industries, Ltd.) per gram of dry seed. The seeds were then half-buried in the samples of soil. […] Six containers were allotted for each condition, and the proportion of seedling establishment (proportion of individual plants that survived) was measured after two weeks.

[6] = system: barley; assay: Seedling establishment of barley seeds in humid soil (Example 6-1, FIG. 20a); format: in vivo; details: 0.01 mmol to 0.5 mmol molybdenum per gram of dry seed, 20° C., after two weeks
Procedure: As in Example 4-1, ammonium sulfate in an equivalent amount of 10 g/m^2 in terms of nitrogen and potassium chloride equivalent to 5 g/m^2 of potassium as potassium oxide were added as a solution to paddy humid soil in terms of 100 kg/m^2 of dry soil with a soil-to-liquid ratio of 0.7. The soil was placed into each container (in the shape of a cylinder approximately 7 cm in diameter) in an amount equivalent to 100 g of dry soil. The soil surface was flattened by giving it a slight press with a flat plate. Then, the soil was left at rest for one day at 4° C. […] The seeds were then half-buried in the soil. After that, at a constant temperature of 20° C., the water level was kept by adding water to such an extent that the seeds were slightly covered with water. Six containers were allotted for each condition, and the proportion of seedling establishment (proportion of individual plants that survived) was measured after two weeks. It should be noted that in each of FIGS. 20a and 20b, the horizontal axis represents the number of moles (mmol) of molybdenum that adhered per gram of dry seed. In each of FIGS. 20a and 20b, the dots correspond to the numbers of moles of 0, 0.01, 0.02, 0.05, 0.1, 0.2, and 0.5 mmol, starting from the left. […]

[7] = system: soybean; assay: Seedling establishment of soybean seeds submerged for two days (Example 6a-1, FIG. 20e); format: in vivo; details: 0.01 mmol to 0.5 mmol molybdenum per gram of dry seed, 25° C., versus untreated seeds
Procedure: Soil was prepared in the same manner as in Example 6-1. Next, soybean seeds (branded as Fukuyutaka) not subjected to treatment such as soaking in advance were soaked for one minute in a tenfold diluted solution of a commercially available laundry starch (manufactured by Rocket Soap Co., Ltd.; My Laundry Starch) containing approximately a little less than 10% by weight of polyvinyl alcohol. Then, the seeds were spin-dried for thirty seconds in a commercially available washing machine for removal of the extra water. […] These seeds were buried so that the upper edge of each seed was at the same height as the soil surface. In an artificially-lit (amount of light 0.4 mmol/m^2/s, lit for twelve hours per day) room at 25° C., water was added immediately after seeding so that the surface water was 15 mm high. After two days, the surface water was sucked up with a pipette for removal. Six containers were allotted for each condition, and the proportion of seedling establishment (proportion of individual plants that survived) was measured two weeks after seeding. It should be noted that in FIG. 20e, the horizontal axis represents the number of moles (mmol) of molybdenum that adhered per gram of dry seed. In FIG. 20e, the dots correspond to the numbers of moles of 0 (UNTREATED), 0.01, 0.02, 0.05, 0.1, 0.2, and 0.5 mmol, starting from the left. […]

[8] = in water, powder, trihydrate, cited from earlier work

Substance: Triammonium 12-moblydo(VI)phosphate trihydrate [Ammonium molybdophosphate]
- number of days for which sulfide ion generation was inhibited [1]: fourteen
- Possibility of growth, Amount of molybdenum or tungsten added to seed [2]: > 1 mmol/g
- Inhibition of decay, Amount of molybdenum or tungsten added to seed [3]: <0.01 mmol/g
- seedling establishment [4]: obvious improvements in seedling establishment; also recorded: most remarkable improving effect on seedling establishment
- proportion of seedling establishment [5]: improvements in proportion of seedling establishment
- proportion of seedling establishment [6]: improvements in proportion of seedling establishment
- proportion of seedling establishment [7]: improvements in proportion of seedling establishment
- Water solubility ([8]; listed as ammonium molybdophosphate): slightly soluble
- Water solubility [8]: Slightly soluble (has a percentage of solubility of 10% by weight or lower with respect to water)
